# In PMC7729925, “Selective hepatitis B and D virus entry inhibitors from the group of pentacyclic lupane-type betulin-derived triterpenoids” (Scientific Reports, 2020):
# Read-outs that look alike come from different tables or passages of the source.
# Experiments:
# HDV = test: in vitro HDV infection of NTCP-HepG2 cells; assay type: cell-based; details: for inhibition of in vitro HDV infection: 5–300 µM (2, 19) or 5–600 µM (4, 17), 6 h with 700 genome equivalents/cell, HDAg immunostaining day 9
# Procedure: At day 9 post infection, cells were fixed and an immunostaining against the HDAg was performed, as a marker of HDV infection. The number of infected cells per well was determined by fluorescence microscopy. NTCP-HepG2 cells incubated without inhibitor were used as control (set to 100% infection rate). Infection experiments in the presence of 0.5 µM myr-preS1_2-48 peptide served as control for the 0% infection rate. Scale bars: 100 µm. Data represent means ± SEM of three independent experiments each with triplicate determinations (n = 9). […] Data were combined from two independent experiments, each with quadruplicate determinations (n = 8). (h) Cell viability was determined with an LDH cytotoxicity assay. HepG2 cells treated with HGM w/o test compound were used as positive control and lysed cells as negative control.
# For infection experiments NTCP-HepG2 cells were cultured in 96-well plates in Hepatocyte Growth Medium (HGM) consisting of William’s E Medium (Thermo Fisher Scientific) containing 2% bovine serum albumin (BSA, Roth), 2 mM L-Glutamin (Thermo Fisher Scientific), 100 µg/ml gentamicin (Thermo Fisher Scientific), 10 nM dexamethasone (Sigma-Aldrich), 1 mM sodium pyruvate (Thermo Fisher Scientific), 1 × Insulin-Transferrin-Selen (Thermo Fisher Scientific), 2% DMSO (Merck, Darmstadt, Germany), 4% polyethylene glycol (Sigma-Aldrich) and 2 µg/ml doxycycline (Sigma-Aldrich) as reported. Subsequently, cells were washed with DMEM and cultured in HGM supplemented with 2% DMSO, 2% BSA and 2 µg/ml doxycycline. […] HDV stock solved in 20 µl HGM per well was added for infection and cells were incubated for 6 h with final concentration of 700 genome equivalents/cell of HDV particles. HDV production was done in vitro as described before[55],[56]. RT-qPCR was performed to determine genome equivalents. Every three days medium was changed until cells were fixed at 9 days post infection with 3% paraformaldehyde (Sigma-Aldrich) in PBS, for 30 min at room temperature (RT). Cells were permeabilized with 0.2% Triton X 100 (Roth) in PBS for 30 min at RT, and blocked by incubation with 5% bovine serum albumin (Roth) in PBS, for 30 min at RT. Then, cells were immunostained with purified human anti-HDV-positive serum at 37 °C for 1 h (1:400 dilution). Goat anti-human IgG secondary antibody coupled to Alexa Fluor fluorophore (1:400 dilution, Thermo Fisher Scientific) was added for 1 h at 37 °C for detection of Hepatitis Delta antigen (HDAg) as described before.
# rats = details: single i.p. application of 400 mg/kg; cited from earlier work
# mice = details: cited from earlier work
# NTCP [1] = molecular target: T1, NTCP (Homo sapiens, UniProt Q14973); test: [3H]TC transport (bile acid uptake) inhibition in NTCP-HEK293 cells; assay type: cell-based; details: read-out: IC50 ([3H]TC uptake)
# T1 construct: expressed in transfected cells
# T1 sequence (Q14973 1-349): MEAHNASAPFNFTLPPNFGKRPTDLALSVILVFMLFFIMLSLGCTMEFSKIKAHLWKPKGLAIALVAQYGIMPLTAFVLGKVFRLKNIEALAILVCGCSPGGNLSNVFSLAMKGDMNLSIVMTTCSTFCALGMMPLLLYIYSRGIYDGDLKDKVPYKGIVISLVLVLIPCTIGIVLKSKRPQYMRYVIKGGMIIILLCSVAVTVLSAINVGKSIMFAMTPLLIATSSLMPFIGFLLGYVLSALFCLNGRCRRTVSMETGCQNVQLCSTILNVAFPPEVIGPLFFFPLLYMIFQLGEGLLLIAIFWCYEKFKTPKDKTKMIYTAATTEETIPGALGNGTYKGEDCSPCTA
# Procedure: (§1) The major goal of the present study was to analyze in parallel the effect of inhibitors on both, bile acid transport via NTCP and myr-preS1_2-48 lipopeptide binding to NTCP in a cell culture system. […] NTCP-HEK293 cells were seeded onto 96-well plates and were incubated with tetracycline in order to induce expression of the human NTCP protein. […] Experiments were performed with solvent alone (set to 100%) and with increasing concentrations of the indicated inhibitors. […] Half maximal inhibitory concentrations (IC50) were calculated by nonlinear regression analysis using the equation log(inhibitor) versus response (GraphPad Prism). […] Data represent means ± SD of quadruplicate determinations of representative experiments. […] In parallel, [^3H]preS1 peptide binding experiments were performed with a tritium-labelled myr-preS1_2-48 lipopeptide -HBV subgenotype D3- that was purchased from Pharmaron (120 Ci/mmol, 1 mCi/ml, Cardiff, UK). […] Experiments were stopped after 10 min by two-times washing with ice-cold PBS. For 0% uptake/binding control, the NTCP-HEK293 cells were not induced with tetracycline (-tet). […] Transport rates and [^3H]preS1 binding were determined in counts per minute (cpm). […] IC50 values were calculated from quadruplicate determinations by GraphPad Prism 6 (GraphPad, San Diego, CA, USA).
# NTCP [2] = molecular target: T1, NTCP; test: [3H]preS1 (myr-preS1_2-48 lipopeptide) binding inhibition in NTCP-HEK293 cells; details: for IC50: NTCP-HEK293 cells
# Procedure: as §1
# HBV = test system: HBV; design: method as in earlier work; details: ref 25 (Shimura et al.); read-out: IC50 in vitro HBV infection; cited from earlier work
# NTCP [3] = molecular target: T1, NTCP; design: method as in earlier work; details: ref 25 (Shimura et al.); read-out: IC50 bile acid transport inhibition; cited from earlier work
# HBV/HDV = test system: HBV/HDV; design: method as in PMID 15650187; details: cited from earlier work
smiles,measurement,setting,value
"C=C(C)[C@@H]1CC[C@]2(C(=O)O)CC[C@]3(C)[C@H](CC[C@@H]4[C@@]5(C)CC[C@H](O)C(C)(C)[C@@H]5CC[C@]43C)[C@@H]12 [Compound 4, Betulinic acid]",inhibition of in vitro HDV infection,HDV,significantly blocked
same,toxic effects in rats,rats,no toxic effects were observed
same,"toxic effects in mice, repeated dose",mice; 100 mg/kg i.p. every 3–4 days for a total of six treatments,no toxic effects were observed
same,"toxic effects in mice, single dose",mice; 500 mg/kg i.p. once,no toxic effects were observed
"C=C(C)[C@@H]1CC[C@]2(C)CC[C@]3(C)[C@H](CC[C@@H]4[C@@]5(C)CCC(=O)C(C)(C)[C@@H]5CC[C@]43C)[C@@H]12 [Compound 17, Lupenone]",IC50,NTCP [1],146 to 397 µM
same,IC50,"NTCP [2]; IC50 ([3H]preS1 binding), 95% confidence interval, inhibition of 5 nM [3H]preS1 binding, 10 min, 37 °C",13.1 to 35.5 µM
same,IC50,"NTCP [2]; IC50 [3H]preS1 binding inhibition, mean IC50, 5 nM [3H]preS1, standard pH 7.4",11 to 50 µM
same,inhibition of in vitro HDV infection,HDV,significantly blocked
"C=C(C)[C@@H]1CC[C@]2(C(=O)N[C@@H](CC(=O)OC)C(=O)OC)CC[C@]3(C)[C@H](CC[C@@H]4[C@@]5(C)CCC(=O)C(C)(C)[C@@H]5CC[C@]43C)[C@@H]12 [Compound 19, Betulonoyl dimethyl-L-aspartate]",IC50,"NTCP [1]; 95% confidence interval, inhibition of 1 µM [3H]TC uptake, NTCP-HEK293 cells, 10 min, 37 °C",298 to 1430 µM
same,IC50,"NTCP [2]; mean IC50, 5 nM [3H]preS1, standard pH 7.4, read-out: IC50 [3H]preS1 binding inhibition",11 to 50 µM
same,Selectivity index,NTCP [2]; ratio of mean IC50 [3H]TC transport inhibition / IC50 [3H]preS1 binding inhibition,28
same,inhibition of in vitro HDV infection,HDV,significantly blocked
CC=CCC(C)C(O)C1C(=O)NC(CC)C(=O)N(C)C(OCCOC)C(=O)N(C)C(CC(C)(C)O)C(=O)NC(C(C)C)C(=O)N(C)C(CC(C)C)C(=O)NC(C)C(=O)NC(C)C(=O)N(C)C(CC(C)C)C(=O)N(C)C(CC(C)C)C(=O)N(C)C(C(C)C)C(=O)N1C (stereo not shown) [SCY995],IC50,HBV,< 8 µM
same,IC50,NTCP [3],> 25 µM
"CCCCCCCCCCCCCC(=O)NCC(=O)N[C@@H](CCC(N)=O)C(=O)N[C@@H](CC(N)=O)C(=O)N[C@@H](CC(C)C)C(=O)N[C@@H](CO)C(=O)N[C@H](C(=O)N[C@@H](CO)C(=O)N[C@@H](CC(N)=O)C(=O)N1CCC[C@H]1C(=O)N[C@@H](CC(C)C)C(=O)NCC(=O)N[C@@H](Cc1ccccc1)C(=O)N[C@@H](Cc1ccccc1)C(=O)N1CCC[C@H]1C(=O)N[C@@H](CC(=O)O)C(=O)N[C@@H](Cc1c[nH]cn1)C(=O)N[C@@H](CCC(N)=O)C(=O)N[C@@H](CC(C)C)C(=O)N[C@@H](CC(=O)O)C(=O)N1CCC[C@H]1C(=O)N[C@@H](C)C(=O)N[C@@H](Cc1ccccc1)C(=O)N[C@@H](CCCNC(=N)N)C(=O)N[C@@H](C)C(=O)N[C@@H](CC(N)=O)C(=O)N[C@H](C(=O)N[C@@H](C)C(=O)N[C@@H](CC(N)=O)C(=O)N1CCC[C@H]1C(=O)N[C@@H](CC(=O)O)C(=O)N[C@@H](Cc1c[nH]c2ccccc12)C(=O)N[C@@H](CC(=O)O)C(=O)N[C@@H](Cc1ccccc1)C(=O)N[C@@H](CC(N)=O)C(=O)N1CCC[C@H]1C(=O)N[C@@H](CC(N)=O)C(=O)N[C@@H](CCCCN)C(=O)N[C@@H](CC(=O)O)C(=O)N[C@H](C(=O)N[C@@H](Cc1c[nH]c2ccccc12)C(=O)N1CCC[C@H]1C(=O)N[C@@H](CC(=O)O)C(=O)N[C@@H](C)C(=O)N[C@@H](CC(N)=O)C(=O)N[C@@H](CCCCN)C(=O)N[C@H](C(=O)NCC(N)=O)C(C)C)[C@@H](C)O)[C@@H](C)O)[C@@H](C)O [myr-preS1_2-48 lipopeptide, reference compound]",in vitro HDV infection with peptide control,"HDV; co-incubation with 0.5 µM, set to 0% infection rate",completely abolished infection
same,IC50 of in vitro HBV/HDV infection,HBV/HDV,low nanomolar range
